Here are results for 1 compound from paper PMC11279916, “Application of ^99mTc-Labeled WL12 Peptides as a Tumor PD-L1-Targeted SPECT Imaging Agent: Kit Formulation, Preclinical Evaluation, and Study on the Influence of Coligands” (Pharmaceuticals, 2024).

The target of the assay is PD-L1 protein (Homo sapiens, UniProt Q9NZQ7). Briefly: TR-FRET in vitro affinity assay (IC50). The format is binding. To be noted: PD-L1-biotin / PD-1-Eu. As for the experimental part: Fig. S3. HPLC analysis of HYNIC-WL12 (tR = 14.29 min, purity 95.84%).
Sequence of PD-L1 protein (Q9NZQ7 19-238 limits assumed): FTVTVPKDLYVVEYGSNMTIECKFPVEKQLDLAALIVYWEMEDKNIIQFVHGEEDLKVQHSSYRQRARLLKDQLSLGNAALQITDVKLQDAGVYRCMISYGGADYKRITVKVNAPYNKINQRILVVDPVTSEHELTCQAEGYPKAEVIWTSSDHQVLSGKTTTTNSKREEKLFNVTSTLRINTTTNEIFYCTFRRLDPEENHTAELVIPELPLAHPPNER
In Vitro Affinity Assay: Determination of IC50
The affinity of WL12 and HYNIC-WL12 for the PD-L1 protein was determined via a time-resolved fluorescence energy transfer (TR-FRET) assay. In brief, 200 nL of WL12 or HYNIC-WL12 solutions at different concentrations (from 0.5-10000 nM) in 10% ethanol were transferred to 384-well plates on an Echo550 […]
instrument. Then, 5 µL of PD-L1-biotin solution was added, and the plates were centrifuged at 1000 rpm for 30 s and incubated at room temperature. After incubation for 15 min, the mixed solution containing PD-1-Eu and dye-labeled acceptor was added. Then, the plates were centrifuged at 1000 rpm for 30 s and incubated for 90 min at room temperature. Finally, the 665 nm-to-615 nm ratios were read on a microplate reader, and the IC50 values of the two peptides were calculated. […]
For RP-HPLC analysis of [99mTc]Tc-HYNIC-WL12-tricine/M, phase A was water containing 0.1% trifluoroacetic acid (TFA), and phase B was acetonitrile containing 0.1% trifluoroacetic acid (TFA). […] Additionally, the radiochemical purity of [99mTc]Tc-HYNIC-WL12-tricine/M was determined by instant thin layer chromatography on silica gel (iTLC-SG, Agilent, China) using acid-citrate-dextrose solution (ACD solution, pH = 4.5-5.5) as the mobile phase solvent. […]
Effect of HYNIC-WL12 Quantities on the Radiochemical Yield […]

In general, IC50 refers to the concentration that inhibits the measured activity by half. Turning to `CCCC[C@H]1C(=O)N(C)[C@@H](CCCC)C(=O)N[C@@H](CCCNC(=O)c2ccc(NN)nc2)C(=O)N[C@H](C(=O)NCC(N)=O)CSCC(=O)N[C@@H](Cc2ccc(O)cc2)C(=O)N(C)[C@@H](C)C(=O)N[C@@H](CC(N)=O)C(=O)N2CCC[C@H]2C(=O)N[C@@H](Cc2c[nH]cn2)C(=O)N[C@@H](CC(C)C)C(=O)N2C[C@H](O)C[C@H]2C(=O)N[C@@H](Cc2c[nH]c3ccccc23)C(=O)N[C@@H](CO)C(=O)N[C@@H](Cc2cn(C)c3ccccc23)C(=O)N1C` [HYNIC-WL12], the IC50 amounted to 170 nM.
